The source made the active and inactive calls. The rule behind the calls is not given here.
How the values were obtained:
[1] = system: Left cardiac atrium; assay: Negative […] activity in electrically-paced Cavia porcellus (guinea pig) left atrium measured immediately by isometric transducer analysis in presence of thioperamide; type: functional, tissue-based
[2] = system: Right cardiac atrium; assay: Negative […] activity in electrically-paced Cavia porcellus (guinea pig) right atrium measured immediately by isometric transducer analysis in presence of ANR 83; type: functional, tissue-based
[3] = system: Left cardiac atrium; assay: Negative […] activity in electrically-paced Cavia porcellus (guinea pig) left atrium measured immediately by isometric transducer analysis in presence of benzalkonium/prazosin relative to arecaidine propargyl ester; type: functional
[4] = system: Right cardiac atrium; assay: Negative ionotropic activity in electrically-paced Cavia porcellus (guinea pig) right atrium assessed as effect on force measured immediately by isometric transducer analysis in absence of benzalkonium/prazosin relative to arecaidine propargyl ester; type: functional
[5] = system: Right cardiac atrium; assay: Negative […] activity in electrically-paced Cavia porcellus (guinea pig) right atrium measured immediately by isometric transducer analysis in presence of DPCPX; type: functional, tissue-based
[6] = system: Right cardiac atrium; assay: Negative ionotropic activity in electrically-paced Cavia porcellus (guinea pig) right atrium measured immediately by isometric transducer analysis in presence of pimozide; type: functional, tissue-based
[7] = system: Right cardiac atrium; assay: Negative […] activity in electrically-paced Cavia porcellus (guinea pig) right atrium assessed as effect on rate measured immediately by isometric transducer analysis in presence of benzalkonium/prazosin relative to arecaidine propargyl ester; type: functional
[8] = system: Left cardiac atrium; assay: Negative […] activity in electrically-paced Cavia porcellus (guinea pig) left atrium measured immediately by isometric transducer analysis in presence of prazosin; type: functional, tissue-based
[9] = system: Left cardiac atrium; assay: Negative […] activity in electrically-paced Cavia porcellus (guinea pig) left atrium measured immediately by isometric transducer analysis in presence of benzalkonium; type: functional, tissue-based
[10] = system: Left cardiac atrium; assay: Negative […] activity in electrically-paced Cavia porcellus (guinea pig) left atrium measured immediately by isometric transducer analysis in presence of benzalkonium/prazosin; type: functional, tissue-based
[11] = system: Left cardiac atrium; assay: Negative […] activity in electrically-paced Cavia porcellus (guinea pig) left atrium measured immediately by isometric transducer analysis in presence of benextramine; type: functional, tissue-based
[12] = system: Left cardiac atrium; assay: Negative ionotropic activity in electrically-paced Cavia porcellus (guinea pig) left atrium measured immediately by isometric transducer analysis in presence of ANR 83; type: functional, tissue-based
[13] = system: Right cardiac atrium; assay: Negative […] activity in electrically-paced Cavia porcellus (guinea pig) right atrium measured immediately by isometric transducer analysis in presence of AM 630; type: functional, tissue-based
[14] = system: Left cardiac atrium; assay: Negative ionotropic activity in electrically-paced Cavia porcellus (guinea pig) left atrium measured immediately by isometric transducer analysis in presence of 4-DAMP mustard; type: functional, tissue-based
[15] = system: Right cardiac atrium; assay: Negative […] activity in electrically-paced Cavia porcellus (guinea pig) right atrium assessed as effect on rate measured immediately by isometric transducer analysis in absence of benzalkonium/prazosin; type: functional, tissue-based
[16] = system: Right cardiac atrium; assay: Negative […] activity in electrically-paced Cavia porcellus (guinea pig) right atrium measured immediately by isometric transducer analysis in presence of […]; type: functional, tissue-based
[17] = system: Right cardiac atrium; assay: Negative ionotropic activity in electrically-paced Cavia porcellus (guinea pig) right atrium measured immediately by isometric transducer analysis in presence of bupranolol; type: functional, tissue-based
[18] = system: Left cardiac atrium; assay: Negative […] activity in electrically-paced Cavia porcellus (guinea pig) left atrium measured immediately by isometric transducer analysis in presence of bupranolol; type: functional, tissue-based
[19] = system: Right cardiac atrium; assay: Negative […] activity in electrically-paced Cavia porcellus (guinea pig) right atrium assessed as effect on rate measured immediately by isometric transducer analysis in absence of benzalkonium/prazosin relative to arecaidine propargyl ester; type: functional
[20] = system: Right cardiac atrium; assay: Negative ionotropic activity in electrically-paced Cavia porcellus (guinea pig) right atrium measured immediately by isometric transducer analysis in presence of prazosin; type: functional, tissue-based
[21] = system: Left cardiac atrium; assay: Negative […] activity in electrically-paced Cavia porcellus (guinea pig) left atrium measured immediately by isometric transducer analysis in presence of dihydroergocristine; type: functional, tissue-based
[22] = system: Right cardiac atrium; assay: Negative ionotropic activity in electrically-paced Cavia porcellus (guinea pig) right atrium assessed as effect on force measured immediately by isometric transducer analysis in absence of benzalkonium/prazosin; type: functional, tissue-based
[23] = system: Right cardiac atrium; assay: Reversible negative ionotropic activity in electrically-paced Cavia porcellus (guinea pig) right atrium incubated for few seconds followed by compound washout measured after 3 hr by isometric transducer analysis in absence of benzalkonium/prazosin; type: functional, tissue-based
[24] = system: Left cardiac atrium; assay: Negative […] activity in electrically-paced Cavia porcellus (guinea pig) left atrium measured immediately by isometric transducer analysis in presence of naloxane; type: functional, tissue-based
[25] = system: Left cardiac atrium; assay: Negative ionotropic activity in electrically-paced Cavia porcellus (guinea pig) left atrium measured immediately by isometric transducer analysis in presence of DPCPX; type: functional, tissue-based
[26] = system: Left cardiac atrium; assay: Negative ionotropic activity in electrically-paced Cavia porcellus (guinea pig) left atrium measured immediately by isometric transducer analysis in absence of benzalkonium/prazosin; type: functional, tissue-based

COc1ccccc1CN1CCC(C2CCN(C(=O)CCCCCCC(=O)N3CCC(C4CCN(Cc5ccccc5OC)CC4)CC3)CC2)CC1 [PIPERTRAMINE AMIDE] was tested, and the Activity [1] was “Active”, the Activity [2] was “Active” and the Efficacy [3] was 60%. For the same compound, the Efficacy [4] was 79%, the Activity [5] was “Active” and the Activity [6] was “Active”. For the same compound, the Efficacy [7] was 42%, the Activity [8] was “Active” and the Activity [9] was “Active”. For the same compound, the EC50 [10] was 0.0417 nM, the Activity [11] was “Active” and the Activity [12] was “Active”. For the same compound, the Activity [13] was “Active”, the Activity [14] was “inactive” and the EC50 [15] was 0.977 nM. For the same compound, the Activity [16] was “Active”, the Activity [17] was “Active” and the Activity [18] was “Active”. The Efficacy [19] was 37%, the Activity [20] was “Active” and the Activity [21] was “Active”. The EC50 [22] was 1.55 nM, the Activity [23] was “Active” and the Activity [24] was “Active”. For the same compound, the Activity [25] was “Active” and the EC50 [26] was 0.0316 nM.

— ChEMBL document CHEMBL3044753, “Polyamines May Modulate Both G Protein-Coupled Receptors and G Proteins” (Med Chem Res, 2004)
